≈ marks a conversion by molar mass, not a printed value. Calls of active or inactive are those of the source. The rule behind the calls is not given here. Square brackets hold non-standard residues; d marks the D form. Peptide text beside a SMILES is read from it. * marks the point of attachment. X1 = COC1=CC(=O)N(C(=O)[C@@H](O*)C(C)C)[C@H]1Cc1ccccc1; NMe2Val = CC(C)[C@@H](C(=O)*)N(C)C; NMeV = CN[C@H](C(=O)O)C(C)C
Assays:
Homo sapiens = species: Homo sapiens; experiment: Anticancer activity was determined by the inhibition of colony formation in liquid culture of KB human epidermoid carcinoma cells up to the concentration 31.6 ug/mL; NI means No inhibition; format: functional
L1210 = experiment: Anticancer activity was determined by the inhibition of colony formation in liquid culture of L-1210 leukemia cells up to the concentration 31.6 ug/mL; NI means No inhibition; format: functional, cell-based; settings: Mus musculus
LNCaP = experiment: Anticancer activity was determined by the inhibition of colony formation in liquid culture of up to the concentration 31.6 ug/mL; NI means No inhibition; format: functional, cell-based; settings: Homo sapiens
SK-OV-3 = experiment: Anticancer activity was determined by the inhibition of colony formation in liquid culture of SK-OV-3 ovarian cancer cells up to the concentration 31.6 ug/mL; NI means No inhibition; format: functional, cell-based; settings: Homo sapiens
P388 = experiment: Anticancer activity against lymphocytic leukemia P388 cells was determined; format: functional; settings: Mus musculus, read-out: ED50 (the source's name)

**Q.** For `CC(=O)N(CC(=O)N(CC(=O)N1CCC[C@H]1C(=O)N1CCC[C@H]1C(=O)N(CC(=O)N(CC(=O)N(C(C)C)C(C)C)C(C)C)C(C)C)C(C)C)Cc1ccccc1`, which Activity (Homo sapiens) is on record?
**A.** Its Activity is “inactive”.

**Q.** And the Activity (L1210)?
**A.** Its Activity is “inactive”.

**Q.** And the Activity (LNCaP)?
**A.** Its Activity is “inactive”.

**Q.** What about the Activity (SK-OV-3) of the same compound?
**A.** The Activity was “inactive”.

**Q.** With `CC(=O)N(CC(=O)N(CC(=O)N1CCCC1C(=O)N1CCC[C@H]1C(=O)N(CC(=O)N(CC(=O)N(C(C)C)C(C)C)C(C)C)C(C)C)C(C)C)Cc1ccccc1` (single isomer, unassigned) as the compound, how does the Activity (Homo sapiens) read?
**A.** Its Activity is “inactive”.

**Q.** And the Activity (L1210)?
**A.** The Activity was “inactive”.

**Q.** What about the Activity (LNCaP) of the same compound?
**A.** Its Activity is “inactive”.

**Q.** What about the Activity (SK-OV-3) of the same compound?
**A.** Its Activity is “inactive”.

**Q.** For `CC(=O)N(CC(=O)N(CC(=O)N1CCC[C@@H]1C(=O)N1CCC[C@@H]1C(=O)N(CC(=O)N(CC(=O)N(C(C)C)C(C)C)C(C)C)C(C)C)C(C)C)Cc1ccccc1` (single isomer, unassigned), which Activity (Homo sapiens) is on record?
**A.** The Activity was “inactive”.

**Q.** And the Activity (L1210)?
**A.** Its Activity is “inactive”.

**Q.** And the Activity (LNCaP)?
**A.** The Activity was “inactive”.

**Q.** And the Activity (SK-OV-3)?
**A.** The Activity was “inactive”.

**Q.** Which Activity (Homo sapiens) does the source give for `CC(=O)N(CC(=O)N(CC(=O)N1CCC[C@@H]1C(=O)N1CCC[C@@H]1C(=O)N(CC(=O)N(CC(=O)N(C(C)C)C(C)C)C(C)C)Cc1ccccc1)C(C)C)Cc1ccccc1` (single isomer, unassigned) here?
**A.** The Activity was “inactive”.

**Q.** What about the Activity (L1210) of the same compound?
**A.** Its Activity is “inactive”.

**Q.** What about the Activity (LNCaP) of the same compound?
**A.** The Activity was “inactive”.

**Q.** And the Activity (SK-OV-3)?
**A.** Its Activity is “inactive”.

**Q.** How did the Activity (Homo sapiens) turn out when `CC(=O)N(CC(=O)N(CC(=O)N1CCC[C@@H]1C(=O)N1CCC[C@@H]1C(=O)N(CC(=O)N(CC(=O)O)C(C)C)C(C)C)C(C)C)Cc1ccccc1` (single isomer, unassigned) was run?
**A.** Its Activity is “inactive”.

**Q.** What about the Activity (L1210) of the same compound?
**A.** The Activity was “inactive”.

**Q.** And the Activity (LNCaP)?
**A.** Its Activity is “inactive”.

**Q.** What about the Activity (SK-OV-3) of the same compound?
**A.** Its Activity is “inactive”.

**Q.** Which Activity (Homo sapiens) does the source give for `CC(=O)N(CC(=O)N(CC(=O)N1CCC[C@H]1C(=O)N1CCCC1C(=O)N(CC(=O)N(CC(=O)N(C(C)C)C(C)C)C(C)C)C(C)C)C(C)C)Cc1ccccc1` (single isomer, unassigned) here?
**A.** The Activity was “inactive”.

**Q.** And the Activity (L1210)?
**A.** The Activity was “inactive”.

**Q.** What about the Activity (LNCaP) of the same compound?
**A.** The Activity was “inactive”.

**Q.** And the Activity (SK-OV-3)?
**A.** The Activity was “inactive”.

**Q.** Which results are given for `CC(C)N(CC(=O)N(C(C)C)C(C)C)C(=O)CN(C(=O)[C@H]1CCCN1C(=O)[C@H]1CCCN1C(=O)OCc1ccccc1)C(C)C` (single isomer, unassigned)?
**A.** Activity (Homo sapiens): inactive; Activity (L1210): inactive; Activity (LNCaP): inactive; Activity (SK-OV-3): inactive

**Q.** What does the source list for `CC(C)N(CC(=O)O)C(=O)CN(C(=O)[C@H]1CCCN1C(=O)[C@H]1CCCN1C(=O)CN(C(=O)CNCc1ccccc1)C(C)C)C(C)C` (single isomer, unassigned)?
**A.** Activity (Homo sapiens): inactive; Activity (L1210): inactive; Activity (LNCaP): inactive; Activity (SK-OV-3): inactive

**Q.** How did the EC50 (P388) turn out when `COC1=CC(=O)N(C(=O)[C@@H](OC(=O)[C@@H]2CCCN2C(=O)[C@@H]2CCCN2C(=O)[C@H](C(C)C)N(C)C(=O)[C@@H](NC(=O)[C@H](C(C)C)N(C)C)C(C)C)C(C)C)[C@H]1Cc1ccccc1` [DOLASTATIN 15] (NMe2Val-V[NMeV]PP-X1) was run?
**A.** The EC50 was 2.4 ng/mL (≈ 2.87 nM).

**Q.** How did the EC50 (P388) turn out when `CC[C@H](C)[C@@H]([C@@H](CC(=O)N1CCC[C@H]1[C@H](OC)[C@@H](C)C(=O)N[C@@H](Cc1ccccc1)c1nccs1)OC)N(C)C(=O)[C@@H](NC(=O)[C@H](C(C)C)N(C)C)C(C)C` [DOLASTATIN-10] was run?
**A.** Its EC50 is 0.1 ng/mL (≈ 0.127 nM).

Reference: ChEMBL document CHEMBL1131558, “Synthesis of Dolastatin 15 mimetic peptoids” (1998)
